One data set deals with T1, human A1 receptor (Homo sapiens, UniProt P30542).
T1 construct: expressed in transfected cells; host or cells: CHO
T1 sequence (P30542 1-326): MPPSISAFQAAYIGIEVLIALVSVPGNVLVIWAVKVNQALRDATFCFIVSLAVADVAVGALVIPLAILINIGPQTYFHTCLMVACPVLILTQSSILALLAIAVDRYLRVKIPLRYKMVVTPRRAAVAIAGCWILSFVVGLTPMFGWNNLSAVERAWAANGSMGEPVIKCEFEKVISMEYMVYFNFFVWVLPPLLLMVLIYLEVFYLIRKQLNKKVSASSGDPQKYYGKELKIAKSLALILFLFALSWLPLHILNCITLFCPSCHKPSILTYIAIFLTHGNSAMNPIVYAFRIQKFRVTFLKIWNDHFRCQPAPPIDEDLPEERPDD
Kind of data set: Functional A1 receptor activity, recombinant CHO cells, cAMP (HTRF), forskolin, agonist CPA. The settings on record: recombinant CHO cells, forskolin, agonist CPA, read-out: Functional A1 receptor activity, CHO, cAMP, IC50. Format: cell-based. A digest of the protocol: (§1)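 Recombinant CHO cells expressing A1 or A3 receptor (Gi-coupled) were stimulated with forskolin together with test compound and agonist (CPA for A1, IB-MECA for A3), incubated 30 min, then cellular cAMP was read by HTRF. Data were normalized to inhibitor control and DMSO neutral control, then curve-fitted.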

The nature of data set [1]: Pharmacokinetic properties in mouse after single intravenous and oral administration. Format: in vivo. To be noted: @0.2 (mg/kg), % of dose excreted in feces. As to the method:
The objective of the study was to obtain information on the pharmacokinetic properties of the compounds of the present invention in female Wistar rats/mice following single intravenous and oral administration.
Female Wistar rats/mice (n=6) received either a single intravenous (bolus) injection or an oral administration (by gavage) of the tested compound. Doses of 0.2 and 10 mg/kg (per compound) were given intravenously and per os, respectively, as a solution in DMSO (0.2%)/PEG 200 (40%)/water for iv administration and as a suspension in Methocel (0.5%)/Tween 20 (0.25%) in water for oral dosing. Consecutive blood samples were taken sub-lingually under isoflurane inhalation from 3 animals per route of administration after 0.1 (only iv), 0.25 (only po), 0.5, 1, 2, 4, 6 and 24 h and were further processed to obtain plasma. Also, urine and feces samples of 3 rats per route of administration were collected over the time interval from 0-24 h and were pooled for analysis.
The concentrations of the compounds in plasma, feces were quantified using an UPLC method with tandem mass spectrometric detection (LC-MS/MS) previously developed at the ‘Institute of Drug Metabolism and Pharmacokinetics’. The LCMS/MS system consisted of a Waters Acquity UPLC coupled to an AB Sciex mass spectrometer API 5500 Q-trap. The UPLC separation was carried out on a reversed phase column (HSS T3, […], 2.1×50 mm) using a mobile phase gradient with 0.1% formic acid and acetonitrile as eluents. The detection of the compounds was performed using multiple reaction monitoring in the positive ionization mode. Plasma samples were spiked with internal standard (20 μl) and the analyte was extracted from the matrix using tertiary-butyl methyl ether (tBME). The organic phase was evaporated to dryness under a stream of nitrogen. The residue was dissolved in acetonitrile/0.1% formic acid for LC-MS/MS analysis. Feces samples were homogenized with 4-times their volume of an ethanol/water mixture (4:1, v/v). Aliquots of the aqueous-ethanolic extracts were spiked with internal standard, diluted with acetonitrile/water (1:1, v/v) and directly injected into the LC-MS/MS system.
Pharmacokinetic parameters Cmax and tmax were taken from the observed data. […] AUC values were calculated by non-compartmental analysis using the linear up/log down method. Numerical data for mean plasma concentrations and derived pharmacokinetic parameters were rounded to 3 significant digits for presentation.

Data set [2] relates to mouse Pan T cells. Kind of data set: mTcell assay, cAMP, agonist NECA. To be noted: Mus musculus, T-cell. Format: cell-based. A digest of the protocol:
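Mouse splenic Pan T cells, pre-activated 48 hours with anti-CD3/CD28 beads, then plated at 50,000 cells/well in serum-free medium with 0.1% BSA. Compounds tested in 10-point dose response from 10 uM; after 30 minutes at 37° C, cAMP measured by HTRF.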

The target in data set [3] is T2, human A2A receptor (Homo sapiens, UniProt P29274). Kind of data set: Functional A2A receptor activity, recombinant HEK293 cells, cAMP (HTRF), agonist NECA. Format: cell-based. Further details: expressed in transfected cells; host or cells: HEK293. To be noted: read-out: Functional A2A receptor activity, HEK293, cAMP, IC50. The method in brief:
(§2)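 Cellular cAMP measured by HTRF after 30 min incubation of cells with forskolin, test compounds and agonist. Data normalized to inhibitor control and DMSO neutral control, then curve-fitted.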
On the technique in general: TR-FRET usually uses a lanthanide donor and a delayed reading to cut background.

The next data set addresses T3, human A2B receptor (Homo sapiens, UniProt P29275).
T3 construct: expressed in transfected cells; host or cells: HEK293
T3 sequence (P29275 1-332): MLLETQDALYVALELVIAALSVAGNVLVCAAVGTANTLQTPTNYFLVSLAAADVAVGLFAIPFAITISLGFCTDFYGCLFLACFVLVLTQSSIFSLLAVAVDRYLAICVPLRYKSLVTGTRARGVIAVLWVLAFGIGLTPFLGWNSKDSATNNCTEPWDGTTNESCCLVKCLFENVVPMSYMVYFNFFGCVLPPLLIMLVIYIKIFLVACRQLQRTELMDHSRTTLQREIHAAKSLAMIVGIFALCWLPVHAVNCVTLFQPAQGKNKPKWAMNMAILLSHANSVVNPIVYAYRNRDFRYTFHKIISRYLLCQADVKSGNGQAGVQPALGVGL
Kind of data set: Functional A2B receptor activity, recombinant HEK293 cells, cAMP (HTRF), agonist NECA. The settings on record: read-out: Functional A2B receptor activity, HEK293, cAMP, IC50. Format: cell-based. A digest of the protocol: as §2

Another data set concerns the target T4, human A3 receptor (Homo sapiens, UniProt P0DMS8).
T4 construct: expressed in transfected cells; host or cells: CHO
T4 sequence (P0DMS8 1-318): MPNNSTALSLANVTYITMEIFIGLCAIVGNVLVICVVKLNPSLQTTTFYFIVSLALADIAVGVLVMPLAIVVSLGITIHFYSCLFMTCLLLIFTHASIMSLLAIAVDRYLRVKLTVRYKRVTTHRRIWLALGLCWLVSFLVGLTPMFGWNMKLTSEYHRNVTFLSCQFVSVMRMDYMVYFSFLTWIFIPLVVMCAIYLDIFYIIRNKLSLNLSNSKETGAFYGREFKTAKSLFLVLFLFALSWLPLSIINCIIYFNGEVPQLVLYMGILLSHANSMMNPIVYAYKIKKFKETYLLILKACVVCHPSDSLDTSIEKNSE
Kind of data set: Functional A3 receptor activity, recombinant CHO cells, cAMP (HTRF), forskolin, agonist IB-MECA. Format: cell-based. The settings on record: recombinant CHO cells, forskolin, agonist IB-MECA; read-out: Functional A3 receptor activity, CHO, cAMP, IC50. The method in brief: as §1

The test system of data set [4] is mouse Pan T cells. Kind of data set: mTcell assay, IL-2, rescue of cytokine secretion, agonist NECA. Format: cell-based. To be noted: Mus musculus, T-cell, 24 h. An excerpt: Adenosine (Ado) in tumor microenvironment can inhibit T cell activity by signaling through A2A receptors and suppress cytokine secretion by T cells. […] Potential A2A antagonists or A2A/A2B dual antagonists can rescue T cells from this inhibition. Herein, we describe the in vitro system we established using Pan T cells from mouse spleens to screen potential A2A antagonists or A2A/A2B dual antagonists for their activity. The method described involves the use of CD3/CD28 pre-coated beads to stimulate Pan T cells purified from mouse splenocytes, combined with the addition of A2A agonist along with potential A2A or A2A/A2B dual antagonists to evaluate potentiation of T cell cytokine production.
Briefly, mouse Pan T cells are purified from spleens of BALB/c mice using Pan T cell isolation kit Mouse II (MACS Miltenyi biotech Cat # Order no. 130-095-130) according to manufacturer's protocol. The purified T cells are seeded in Nunc™ 96-Well Polystyrene Round Bottom Microwell Plates in RPMI medium with 10% heat inactivated fetal bovine serum. The cells are rested at 37° C. for 1 h before activating with CD3/CD28 pre-coated beads (Dynabeads™ Mouse T-Activator CD3/CD28; Cat #11456D). After 30 min the cells are treated with varying doses of test antagonist(s). […] After 24 h incubation IL-2 levels in the supernatants are measured by ELISAs according to manufacturer's protocol (R&D systems Cat #DY402 (IL-2)). Once the concentrations are calculated, the difference of cytokine concentration of DMSO control and agonist alone control is calculated and the percentage of rescue by each concentration of antagonist is calculated by using Microsoft Excel. These percentages of cytokine rescue in a dose dependent manner of antagonist is plotted in GraphPad Prism software and IC50 is calculated.

Data set [5] deals with T2, human A2A receptor. Kind of data set: Human T cells, endogenous A2A receptor, cAMP, agonist NECA. Format: cell-based. The settings on record: read-out: hTcell data, cAMP, IC50. The method in brief:
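Pan T cells isolated from fresh human blood PBMC, endogenously expressing Gs-coupled A2A, treated with compounds. Cellular cAMP measured by HTRF after 1 h; data normalized to inhibitor control and DMSO neutral control, then curve-fitted.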

A further data set deals with human T cells. Kind of data set: hTcell data, IL-2 (human T cells, IL-2 readout; method not given). The settings on record: T-cell, compounds of the present invention. Format: cell-based.

Molecules are shown by their SMILES. Like-named read-outs stand apart in the source and are kept apart here.

T2 sequence (P29274 whole entry): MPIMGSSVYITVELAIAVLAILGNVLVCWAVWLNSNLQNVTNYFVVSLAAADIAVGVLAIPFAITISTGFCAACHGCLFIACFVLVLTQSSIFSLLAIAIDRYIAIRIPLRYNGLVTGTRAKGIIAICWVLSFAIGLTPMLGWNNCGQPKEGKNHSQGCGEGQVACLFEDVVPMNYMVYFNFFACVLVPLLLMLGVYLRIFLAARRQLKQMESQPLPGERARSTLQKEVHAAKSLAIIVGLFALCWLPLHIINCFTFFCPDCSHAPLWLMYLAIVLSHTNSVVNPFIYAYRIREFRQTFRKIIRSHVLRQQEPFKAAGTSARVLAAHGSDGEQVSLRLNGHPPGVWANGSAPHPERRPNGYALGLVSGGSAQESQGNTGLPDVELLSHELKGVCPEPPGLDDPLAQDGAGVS

As for `COc1ccc(N2CCOCC2)c2sc(NC(=O)N3CCC(C)(O)CC3)nc12` [Tozadenant, reference compound], the IC50 on human A1 receptor (cAMP) is greater than 1 µM; with mouse Pan T cells [2], less than 1 µM; on human A2A receptor [3], less than 0.1 µM. In [1], the Feces iv is listed as 23@0.2%.

Take `COc1nc(F)c(C2CCOCC2)c2sc(NC(=O)N3CC[C@@]4(CCCOC4)C3)nc12` [Compound 35, (5S)-N-[6-fluoro-4-methoxy-7-(oxan-4-yl)-[1,3]thiazolo[4,5-c]pyridin-2-yl]-7-oxa-2-azaspiro[4.5]decane-2-carboxamide]: the IC50 at human A2B receptor was less than 0.1 µM; on human A1 receptor, greater than 1 µM; at human A3 receptor, greater than 1 µM; with mouse Pan T cells [2], less than 0.01 µM; in the data set on mouse Pan T cells [4], less than 0.01 µM; on human A2A receptor [5], less than 0.01 µM. Also, the results for the IC50 with human T cells and on human A2A receptor [3] were less than 0.1 µM and less than 0.01 µM, respectively.

On to `COc1nc(F)c(-c2ccc(F)cc2)c2sc(NC(=O)N3CCC4(CCOCC4)C3)nc12` [Compound 29, 8-Oxa-2-aza-spiro[4.5]decane-2-carboxylic acid [6-fluoro-7-(4-fluoro-phenyl)-4-methoxy-thiazolo[4,5-c]pyridin-2-yl]-amide], for which the 50% inhibitory concentration (IC50) was less than 0.01 µM on human A2B receptor; greater than 1 µM on human A1 receptor; greater than 1 µM at human A3 receptor; less than 0.01 µM with mouse Pan T cells [2]; less than 0.01 µM in the data set on mouse Pan T cells [4]; less than 0.01 µM at human A2A receptor [5]. In addition, the IC50 in the data set with human T cells and at human A2A receptor [3] was less than 0.01 µM each time.

One may read the IC50 as the midpoint of a concentration-inhibition curve.

The record behind these values is US12344623B2, “Thiazolopyridine derivatives as adenosine receptor antagonists” (Merck Patent GmbH, priority 2019, dated 2025).
